Results published in the NIST ThermoML archive (doi:10.1016/j.jct.2005.02.008).
± gives the expanded uncertainty stated by the source.

Legend:
[1] = Crystal; for mass density: 298.15 K, 101.33 kPa, Pycnometric method; for Normal melting temperature: DTA; for vapor or sublimation pressure: Calculated from knudsen effusion weight loss
[2] = molar heat capacity at constant pressure; conditions: 101.33 kPa, Crystal

c1ccc(-c2nc3ccccc3[nH]2)cc1 [2-phenylbenzimidazole]
[1]
Conditions | Normal melting temperature [°C] | mass density [kg/m3]
– | 191.0 ± 0.5 | 1060 ± 10

[2]
Conditions | molar heat capacity at constant pressure [J/K/mol]
268.15 K | 185.23 ± 7.4
270.15 K | 186.33 ± 7.5
273.15 K | 188.41 ± 7.5
275.15 K | 189.51 ± 7.6
280.15 K | 193.33 ± 7.7
285.15 K | 197.27 ± 7.9
290.15 K | 201.29 ± 8.1
295.15 K | 205.63 ± 8.2
298.15 K | 208.09 ± 8.3
300.15 K | 209.51 ± 8.4
305.15 K | 215.89 ± 8.6
310.15 K | 220.71 ± 8.8
315.15 K | 224.47 ± 9
320.15 K | 228.09 ± 9.1
325.15 K | 231.72 ± 9.3
330.15 K | 235.41 ± 9.4
335.15 K | 238.58 ± 9.5
340.15 K | 242.27 ± 9.7
345.15 K | 245.77 ± 9.8
350.15 K | 249.26 ± 10
355.15 K | 252.83 ± 10
360.15 K | 256.06 ± 10
365.15 K | 259.95 ± 10
370.15 K | 263.64 ± 11
375.15 K | 266.16 ± 11
380.15 K | 269.14 ± 11
385.15 K | 272.38 ± 11
390.15 K | 276.33 ± 11
395.15 K | 280.47 ± 11
400.15 K | 285 ± 11
405.15 K | 288.95 ± 12
410.15 K | 292.32 ± 12
415.15 K | 295.82 ± 12
420.15 K | 300.09 ± 12
425.15 K | 304.1 ± 12
430.15 K | 308.05 ± 12
435.15 K | 312.13 ± 12
440.15 K | 316.02 ± 13
445.15 K | 319.51 ± 13
450.15 K | 322.1 ± 13

c1ccc(Cc2nc3ccccc3[nH]2)cc1 [bendazol]
[1]
Conditions | Normal melting temperature [°C] | mass density [kg/m3]
– | 297.4 ± 0.5 | 1140 ± 10

Conditions | molar heat capacity at constant pressure [J/K/mol] | vapor or sublimation pressure [kPa]
[1], 393.54 K | – | 0.000125 ± 6e-06
[1], 396.81 K | – | 0.000178 ± 9e-06
[1], 400.16 K | – | 0.000248 ± 1.2e-05
[1], 402.04 K | – | 0.000299 ± 1.5e-05
[1], 405.47 K | – | 0.000419 ± 2.1e-05
[1], 409 K | – | 0.000596 ± 3e-05
[1], 412.48 K | – | 0.000829 ± 4.1e-05
[2], 270.15 K | 215.86 ± 8.6 | –
[2], 273.15 K | 218.67 ± 8.8 | –
[2], 275.15 K | 220.51 ± 8.8 | –
[2], 280.15 K | 223.25 ± 8.9 | –
[2], 285.15 K | 227.59 ± 9.1 | –
[2], 290.15 K | 228.63 ± 9.2 | –
[2], 295.15 K | 228.79 ± 9.2 | –
[2], 298.15 K | 228.92 ± 9.2 | –
[2], 300.15 K | 229.04 ± 9.2 | –
[2], 305.15 K | 231.75 ± 9.3 | –
[2], 310.15 K | 233.79 ± 9.3 | –
[2], 315.15 K | 237.21 ± 9.5 | –
[2], 320.15 K | 240.29 ± 9.6 | –
[2], 325.15 K | 244.91 ± 9.8 | –
[2], 330.15 K | 248.5 ± 9.9 | –
[2], 335.15 K | 252.54 ± 10 | –
[2], 340.15 K | 255.29 ± 10 | –
[2], 345.15 K | 260.53 ± 10 | –
[2], 350.15 K | 261.16 ± 10 | –
[2], 355.15 K | 264.99 ± 11 | –
[2], 360.15 K | 269.16 ± 11 | –
[2], 365.15 K | 272.11 ± 11 | –
[2], 370.15 K | 283.19 ± 11 | –
[2], 375.15 K | 285.9 ± 11 | –
[2], 380.15 K | 289.9 ± 12 | –
[2], 385.15 K | 293.81 ± 12 | –
[2], 390.15 K | 298.39 ± 12 | –
[2], 395.15 K | 303.73 ± 12 | –
[2], 400.15 K | 307.64 ± 12 | –
[2], 405.15 K | 312.35 ± 12 | –
[2], 410.15 K | 314.26 ± 13 | –
[2], 415.15 K | 322.84 ± 13 | –
[2], 420.15 K | 329.18 ± 13 | –
[2], 425.15 K | 333.59 ± 13 | –
[2], 430.15 K | 342.59 ± 14 | –
[2], 435.15 K | 349.42 ± 14 | –
[2], 440.15 K | 359.96 ± 14 | –
